Results on 19 molecules are retold here after ChEMBL document CHEMBL5500427, “Discovery of New Phenyltetrazolium Derivatives as Ferroptosis Inhibitors for Treating Ischemic Stroke: An Example Development from Free Radical Scavengers” (J Med Chem, 2024).

Series [1] deals with HT-1080. In words: Anti-ferroptotic activity against Erastin-induced human HT-1080 cells assessed as inhibition of ferroptosis incubated for 72 hrs by CCK-8 assay. The series is classed as functional, cell-based. The settings on record: for pIC50: Homo sapiens, HT-1080, 72 h, read-out: IC50. (Tetrazolium dyes change colour on reduction, which living cells bring about.)
The subject of series [2] is HT-1080. In words: Anti-ferroptotic activity against Erastin-induced ferroptosis in human HT-1080 cells assessed as inhibition of lipid peroxidation production at 10 uM incubated for 24 hrs by C11-BODIPY 581/591 based flow cytometry relative to control. It is filed as functional. The settings on record: HT-1080, 24 h, values are per cent of control.
Another series relates to Mus musculus. The series is described as follows: Neuroprotective activity against transient middle cerebral artery occlusion induced ischemia stroke female SPF C57 mouse model assessed as reduction in cerebral infarct volume at 5 mg/kg,iv measured after 24 hrs by TTC staining based analysis relative to control. The arrangement: scale not given: the % may be the effect or the level left. It is filed as functional.

Series [3] is described as follows: Antioxidant activity assessed as DPPH radical scavenging activity at 0.4 uM incubated for 30 mins by Beckman Coulter analysis relative to control. It is filed as functional. For orientation: DPPH is a stable violet radical that fades when it is reduced.
Series [4] relates to HT-1080. The series is described as follows: Anti-ferroptotic activity against Erastin-induced ferroptosis in human HT-1080 cells assessed as inhibition of lipid ROS production at 10 uM incubated for 24 hrs by C11-BODIPY 581/591 based flow cytometry relative to control. The series is classed as functional. The settings on record: HT-1080, 24 h, values are per cent of control.

Series [5] concerns N2a. In words: Cytoprotective activity against oxygen-glucose deprivation/reoxygenation induced cell injury in mouse N2a cells assessed as upregulation of GPX4 expression at 1 uM incubated for 2 hrs under hypoxia condition and measured after 24 hrs by Western blotting analysis. It is filed as functional, cell-based. Particulars: time 26.0 hrs.
A short description of series [6]: Apparent permeability of compound at 10 uM incubated for 16 hrs by PAMPA based LC-MS/MS analysis. It is filed as ADME.
Series [7] deals with N2a. The series is described as follows: Cytoprotective activity against oxygen-glucose deprivation/reoxygenation induced cell injury in mouse N2a cells assessed as upregulation of SLC7A11 expression at 1 uM incubated for 2 hrs under hypoxia condition and measured after 24 hrs by Western blotting analysis. It is filed as functional, cell-based. The settings on record: time 26.0 hrs. A general note: In western blotting, separated proteins are transferred to a membrane and probed.

A further series deals with Hippocampus. The series is described as follows: Anti-ferroptotic activity against glutamate-induced rat Hippocampus assessed as inhibition of ferroptosis. It is filed as functional, tissue-based.

SMILES strings stand for the structures. pIC50: −log10 of the molar value. Calls of active or inactive are those of the source. No cut-off for these calls is given here.

The term pIC50 denotes the IC50 on a negative log10 scale, so that one unit is a factor of ten. For the molecule `Cn1nnc(-c2cc(N)c(NC3CCCCC3)cc2Cl)n1`, in the series with HT-1080 [1], the pIC50 was 7.77.

For the molecule `O=C1C[C@@H](c2ccc(O)c(O)c2)Oc2cc(O[C@@H]3O[C@H](CO)[C@@H](O)[C@H](O)[C@H]3O)cc(O)c21`, the negative-log IC50 (pIC50) in the series with HT-1080 [1] was 5.00.

With `Cn1nnc(-c2ccc(NC3CCCCC3)cn2)n1`, in the series on HT-1080 [1], the pIC50 was less than 6.00.

`CNc1ccc(-c2nnn(C)n2)cc1`: in the series on HT-1080 [1], the pIC50 was 5.09.

As to `N#CCn1nnc(-c2ccc(NC3CCCCC3)cc2)n1`, the pIC50 in the series on HT-1080 [1] is 5.09.

With `COc1cc(-c2nnn(C)n2)ccc1NC1CCCCC1`, the pIC50 with HT-1080 [1] is less than 6.00.

For the molecule `FC(F)(F)Cn1nnc(-c2ccc(NC3CCCCC3)cc2)n1`, in the series on HT-1080 [1], the negative-log IC50 (pIC50) is less than 5.00.

As for `Cn1nnc(-c2ccc(NC3CCCCC3)cc2N)n1`, the pIC50 with HT-1080 [1] was less than 6.00.

Turning to `Cn1nnc(-c2ccc(Nc3cccnc3)c(NC3CCCCC3)c2)n1`, in the series on HT-1080 [1], the pIC50 is 6.73.

As to `Cc1c(-c2nnn(C)n2)ccc(NC2CCCCC2)c1N`, the negative logarithm of the IC50 (pIC50) with HT-1080 [1] is 7.36.

As for `Cn1nnc(-c2ccc(NC3CCCCC3)cc2)n1`, the negative-log IC50 (pIC50) in the series with HT-1080 [1] was 6.91. In addition, the response, % of control at 10 µM in the series with HT-1080 [2] came out at 5.96%.

On to `c1cc(-c2nn[nH]n2)ccc1NC1CCCCC1`, for which, in the series on HT-1080 [1], the pIC50 is less than 5.00.

As for `O=S1(=O)CCN(Cc2cc(NC3CCOCC3)c3[nH]c(-c4ccccc4)cc3c2)CC1`, the pIC50 with HT-1080 [1] was 5.22.

On to `Oc1cc(O)cc(/C=C/c2ccc(O)cc2O)c1` [OXYRESVERATROL], for which the IC50 result in the series on HT-1080 [1] (ht-1080) is given as “Not Active”.

As to `Cn1nnc(-c2ccc(NC3CCCCC3)c(NCc3ccncc3)c2)n1`, the pIC50 in the series with HT-1080 [1] was less than 6.00.

For `Cn1nnc(-c2ccc(NC3CCCCC3)c(NCc3ccccc3)c2)n1`, the negative-log IC50 (pIC50) in the series on HT-1080 [1] is less than 6.00.

`Cn1nnc(-c2ccc(O)c(NC3CCCCC3)c2)n1`: the pIC50 in the series with HT-1080 [1] is less than 6.00.

Regarding `Cn1nnc(-c2cccc(NC3CCCCC3)c2N)n1`, the pIC50 in the series on HT-1080 [1] was less than 6.00.

A word on the Papp: it is the rate of passage across a membrane or cell layer, normalised by area and donor concentration. Regarding `CCOC(=O)c1ccc(NC2CCCCC2)c(N)c1`, the Activity with Mus musculus worked out at 9.98%. Moreover, in [3], the inhibition result was “inactive”. Besides, the response, % of control at 10 µM is 2.29% with HT-1080 [4] and 0.58% in the series with HT-1080 [2]. The outcome in the series on N2a [5] and in the series with N2a [7] was Active. The Papp at 16 h, 10 µM in [6] is 6.76 ×10⁻⁶ cm/s. Besides, the pIC50 in the series on HT-1080 [1] was 7.22; with Hippocampus it was 7.05.
